Assay results taken from patent US20090118255A1, “Crp Lowering Agent” (TAKEDA PHARMACEUTICAL COMPANY LIMITED, priority 2004, published 2009).

What was measured:
plasma CRP = assay: Plasma CRP lowering effect, WHHL rat, 28 days oral with mixed food; format: in vivo; conditions: male WHHL rat, mean ± SE, N = 11
Method: To 2 month-old male WHHL […] (11 per group) was orally administered with a mixed food a vehicle or Test compound 1 at a dose of 100 and 200 mg/kg for 28 days. Before administration and after 28 days administration, plasma CRP level was determined using CRPα Test Wako (Wako Pure Chemical Industries, Ltd.) with Hitachi, Ltd. Autoanalyzer 7070 (Table 1).

CRP = conditions: literature reports (Ballantyne 2003; Sager 2003); cited from earlier work

Structure (SMILES) | Plasma CRP level, after 28 days administration (plasma CRP; 100 mg/kg orally with mixed food for 28 days) [mg/dL] | Plasma CRP level, after 28 days administration (plasma CRP; 200 mg/kg orally with mixed food for 28 days, *P < 0.025 vs. control) | Plasma CRP level, value of before administration (plasma CRP; baseline of the 100 mg/kg group) [mg/dL] | Plasma CRP level, value of before administration (plasma CRP; baseline of the 200 mg/kg group) [mg/dL] | CRP lowering activity (CRP)
COc1cccc([C@H]2O[C@H](CC(=O)N3CCC(CC(=O)O)CC3)C(=O)N(CC(C)(C)COC(C)=O)c3ccc(Cl)cc32)c1OC [Test compound 1, N-[[(3R,5S)-1-(3-acetoxy-2,2-dimethylpropyl)-7-chloro-5-(2,3-dimethoxyphenyl)-2-oxo-1,2,3,5-tetrahydro-4,1-benzoxazepin-3-yl]acetyl]piperidine-4-acetic acid] | 3.2 ± 0.6 | 2.1 ± 0.2* mg/dL | 4.4 ± 0.4 | 4.4 ± 0.6 | –
O=C1[C@H](CC[C@H](O)c2ccc(F)cc2)[C@@H](c2ccc(O)cc2)N1c1ccc(F)cc1 [ezetimibe] | – | – | – | – | no CRP lowering activity
